In US8884023B2, “Pyrano [3,2-D][1,3]thiazole as glycosidase inhibitors” (priority 2011, dated 2014):

Biological target: T1, His-Tagged hOGA (human O-GlcNAcase) (Homo sapiens, UniProt O60502)
T1 sequence (O60502 1-916): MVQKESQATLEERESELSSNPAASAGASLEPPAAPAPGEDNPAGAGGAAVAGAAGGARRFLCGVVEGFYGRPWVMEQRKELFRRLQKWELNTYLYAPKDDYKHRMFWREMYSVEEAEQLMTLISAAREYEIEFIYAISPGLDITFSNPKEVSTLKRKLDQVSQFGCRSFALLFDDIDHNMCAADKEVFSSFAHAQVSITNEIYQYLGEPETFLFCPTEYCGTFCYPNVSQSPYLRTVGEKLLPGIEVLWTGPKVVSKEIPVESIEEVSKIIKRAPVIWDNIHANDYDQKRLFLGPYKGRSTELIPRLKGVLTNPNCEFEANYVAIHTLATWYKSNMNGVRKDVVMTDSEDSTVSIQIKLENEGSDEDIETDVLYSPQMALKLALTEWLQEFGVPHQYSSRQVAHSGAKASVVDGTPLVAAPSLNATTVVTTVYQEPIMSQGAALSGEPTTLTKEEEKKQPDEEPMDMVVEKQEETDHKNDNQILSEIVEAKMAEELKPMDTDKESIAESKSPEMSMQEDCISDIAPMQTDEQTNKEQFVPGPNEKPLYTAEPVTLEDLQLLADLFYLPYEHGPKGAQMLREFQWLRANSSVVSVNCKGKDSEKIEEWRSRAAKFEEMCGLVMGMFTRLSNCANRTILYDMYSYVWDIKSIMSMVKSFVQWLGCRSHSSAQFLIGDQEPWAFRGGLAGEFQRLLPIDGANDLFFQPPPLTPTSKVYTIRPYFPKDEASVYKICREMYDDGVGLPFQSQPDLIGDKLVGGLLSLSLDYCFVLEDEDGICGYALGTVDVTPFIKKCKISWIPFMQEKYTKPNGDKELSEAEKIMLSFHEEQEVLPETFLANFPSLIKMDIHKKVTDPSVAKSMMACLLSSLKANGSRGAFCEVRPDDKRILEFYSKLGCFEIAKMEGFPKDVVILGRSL
Assay: biochemical
Conditions: not given
Description: Human O-GlcNAcase Enzyme Inhibition Assay
The following reaction components were added to a final volume of 10 μL in McIlvaine's Buffer (pH 6.5):
20 nM His-Tagged hOGA and 10 μM Fluoroscein mono-beta-D-(2-deoxy-2-N-acetyl) glucopyranoside (FL-GlcNAc; Marker Gene Technologies Inc, Part #M1485). […] The amount of fluorescence measured was plotted against the concentration of inhibitor to produce a sigmoidal dose response curve, from which an IC50 was calculated.

| SMILES | IC50 [nM] |
| --- | --- |
| CCNC1=N[C@@H]2[C@@H](O)[C@H](O)[C@@H](C(O)Cc3ccccc3)O[C@@H]2S1 (stereo partly drawn) [compound 52] | 100 to 500 |
| CCNC1=N[C@@H]2[C@@H](O)[C@H](O)[C@@H](Cn3cc(COc4ccccc4CNC)nn3)O[C@@H]2S1 [compound 83] | 500 to 1000 |
| CCNC1=N[C@@H]2[C@@H](O)[C@H](O)[C@@H](Cn3cc(COc4ccccc4C(C)O)nn3)O[C@@H]2S1 (stereo partly drawn) [compound 85] | 100 to 500 |
| CCNC1=N[C@@H]2[C@@H](O)[C@H](O)[C@@H](Cn3cc(Cn4c(C(F)(F)F)nc5ccccc54)nn3)O[C@@H]2S1 [compound 95] | < 100 |
| CCNC1=N[C@@H]2[C@@H](O)[C@H](O)[C@@H](Cn3cc(Cn4nc(C)nc4C)nn3)O[C@@H]2S1 [compound 96] | < 100 |
| CCNC1=N[C@@H]2[C@@H](O)[C@H](O)[C@@H](Cn3cc(Cn4ccnc4-c4cccs4)nn3)O[C@@H]2S1 [compound 97] | < 100 |
| CCNC1=N[C@@H]2[C@@H](O)[C@H](O)[C@@H](Cn3cc(-c4cn(S(=O)(=O)c5ccccc5)c5ccccc45)nn3)O[C@@H]2S1 [compound 98] | < 100 |
| CCNC1=N[C@@H]2[C@@H](O)[C@H](O)[C@@H](Cn3cc(C4(c5ccccc5)CCCC4)nn3)O[C@@H]2S1 [compound 100] | 100 to 500 |
| CCNC1=N[C@@H]2[C@@H](O)[C@H](O)[C@@H](Cn3nnnc3C(=O)c3ccccc3)O[C@@H]2S1 [compound 105] | > 1000 |
| CCNC1=N[C@@H]2[C@@H](OC)[C@H](OC)[C@@H](COC)O[C@@H]2S1 [compound no. 13, (3aR,5R,6S,7R,7aR)—N-ethyl-6,7-dimethoxy-5-(methoxymethyl)-5,6,7,7a-tetrahydro-3aH-pyrano[3,2-d][1,3]thiazol-2-amine] | > 1000 |
| CCNC1=N[C@@H]2[C@@H](OC)[C@H](O)[C@@H](CO)O[C@@H]2S1 [compound no. 15, (3aR,5R,6S,7R,7aR)-2-(ethylamino)-5-(hydroxymethyl)-7-methoxy-5,6,7,7a-tetrahydro-3aH-pyrano[3,2-d][1,3]thiazol-6-ol] | > 1000 |
| CCN(C(=O)OC(C)(C)C)C1=N[C@@H]2[C@@H](O)[C@H](O)[C@@H](COCc3ccccc3)O[C@@H]2S1 [compound no. 16, Tert-butyl {(3aR,5R,6S,7R,7aR)-5-[(benzyloxy)methyl]-6,7-dihydroxy-5,6,7,7a-tetrahydro-3aH-pyrano[3,2-d][1,3]thiazol-2-yl}ethylcarbamate] | > 1000 |

Same assay, conditions: read-out: OGA enzyme inhibition (IC50)

| IC50 [nM] | SMILES |
| --- | --- |
| 100 to 500 | CCNC1=N[C@@H]2[C@@H](O)[C@H](O)[C@@H](Cn3cc(COC)nn3)O[C@@H]2S1 [compound 11, (3aR,5R,6S,7R,7aR)-2-(ethylamino)-5-{[4-(methoxymethyl)-1H-1,2,3-triazol-1-yl]methyl}-5,6,7,7a-tetrahydro-3aH-pyrano[3,2-d][1,3]thiazole-6,7-diol] |
| < 100 | CCNC1=N[C@@H]2[C@@H](O)[C@H](O)[C@@H](Cn3cc(C4(c5ccccc5)CC4)nn3)O[C@@H]2S1 [compound 99] |
| 100 to 500 | CCNC1=N[C@@H]2[C@@H](O)[C@H](O)[C@@H](Cn3cc(COc4cccc(N)c4)nn3)O[C@@H]2S1 [compound 101] |
| 100 to 500 | CCNC1=N[C@@H]2[C@@H](O)[C@H](O)[C@@H](Cn3cc(COc4ccccc4CN)nn3)O[C@@H]2S1 [compound 102] |
| > 1000 | CCNC1=N[C@@H]2[C@@H](O)[C@H](O)[C@@H](COCc3ccccc3)O[C@@H]2S1 [compound no. 8, (3aR,5R,6S,7R,7aR)-5-[(benzyloxy)methyl]-2-(ethylamino)-5,6,7,7a-tetrahydro-3aH-pyrano[3,2-d][1,3]thiazole-6,7-diol] |
| > 1000 | CCNC1=N[C@@H]2[C@@H](O)[C@H](O)[C@@H](C(=O)O)O[C@@H]2S1 [compound no. 9, (3aR,5S,6S,7R,7aR)-2-(ethylamino)-6,7-dihydroxy-5,6,7,7a-tetrahydro-3aH-pyrano[3,2-d]thiazole-5-carboxylic acid] |
